Test results reported in PubChem BioAssay AID248 (DTP/NCI, 2004).
“And” between values parts separate entries of the source, which are not always exact repeats. Identical values can stand only once. Toxic doses and inconclusive results are not listed. No stated cut-off is given here; in the data, active means T/C of 150% or more; inactive means T/C below 125%.

Test system: L1210 leukemia ip in BDF1 mice, survival T/C
Experiment: NCI In Vivo Anticancer Drug Screen. Data for tumor model L1210 Leukemia (intraperitoneal) in B6D2F1 (BDF1) mice
Settings: endpoint: mean survival time, higher = longer survival
Summary of the method: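 Transplanted-tumor mice were given test agent; controls received vehicle only. Survival readings from the two groups were divided (treated over control).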

[1] = dose: 100.0 mg/kg/injection, schedule: Q04DX003 (ip), vehicle: saline with Tween-80
[2] = dose: 200.0 mg/kg/injection, schedule: Q04DX003 (ip), vehicle: saline with Tween-80
[3] = dose: 400.0 mg/kg/injection, schedule: Q04DX003 (ip), vehicle: saline with Tween-80
[4] = dose: 100.0 mg/kg/injection, schedule: Q01DX001 (ip), vehicle: saline
[5] = dose: 200.0 mg/kg/injection, schedule: Q01DX001 (ip), vehicle: saline
[6] = dose: 400.0 mg/kg/injection, schedule: Q01DX001 (ip), vehicle: saline
[7] = dose: 100.0 mg/kg/injection, schedule: Q01DX001 (ip), vehicle: saline with Tween-80
[8] = dose: 100.0 mg/kg/injection, schedule: Q01DX009 (ip), vehicle: saline with Tween-80
[9] = dose: 200.0 mg/kg/injection, schedule: Q01DX001 (ip), vehicle: saline with Tween-80
[10] = dose: 200.0 mg/kg/injection, schedule: Q01DX009 (ip), vehicle: saline with Tween-80
[11] = dose: 400.0 mg/kg/injection, schedule: Q01DX001 (ip), vehicle: saline with Tween-80
[12] = dose: 400.0 mg/kg/injection, schedule: Q01DX009 (ip), vehicle: saline with Tween-80

Measured: T/C

O=[N+]([O-])c1ccc(-[n+]2nc(-c3ccccc3)nn2-c2ccc(I)cc2)cc1
inactive: dose: 8.0 mg/kg/injection, schedule: Q01DX015 (ip), vehicle: carboxymethylcellulose (CMC) 96 % of control | dose: 16.0 mg/kg/injection, schedule: Q01DX015 (ip), vehicle: carboxymethylcellulose (CMC) 96 % of control | dose: 32.0 mg/kg/injection, schedule: Q01DX015 (ip), vehicle: carboxymethylcellulose (CMC) 103 % of control | dose: 50.0 mg/kg/injection, schedule: Q01DX001 (ip), vehicle: carboxymethylcellulose (CMC) 91 % of control | dose: 64.0 mg/kg/injection, schedule: Q01DX015 (ip), vehicle: carboxymethylcellulose (CMC) 88 % of control

CCC1CCCCN1 (stereo not given)
inactive: dose: 10.0 mg/kg/injection, schedule: Q01DX001 (ip), vehicle: saline 105 % of control | dose: 10.0 mg/kg/injection, schedule: Q01DX009 (ip), vehicle: saline 108 % of control and 111 % of control | dose: 10.0 mg/kg/injection, schedule: Q04DX002 (ip), vehicle: saline 95 % of control and 106 % of control | dose: 10.0 mg/kg/injection, schedule: Q04DX003 (ip), vehicle: saline 103 % of control | dose: 20.0 mg/kg/injection, schedule: Q01DX001 (ip), vehicle: saline 120 % of control | dose: 20.0 mg/kg/injection, schedule: Q01DX009 (ip), vehicle: saline 104 % of control | dose: 20.0 mg/kg/injection, schedule: Q04DX002 (ip), vehicle: saline 103 % of control | dose: 20.0 mg/kg/injection, schedule: Q04DX003 (ip), vehicle: saline 101 % of control | dose: 40.0 mg/kg/injection, schedule: Q01DX001 (ip), vehicle: saline 103 % of control | dose: 40.0 mg/kg/injection, schedule: Q01DX009 (ip), vehicle: saline 104 % of control | dose: 40.0 mg/kg/injection, schedule: Q04DX002 (ip), vehicle: saline 94 % of control and 98 % of control | dose: 40.0 mg/kg/injection, schedule: Q04DX003 (ip), vehicle: saline 97 % of control

Nc1n[nH]c(=S)n1-c1ccc(Cl)cc1
inactive: [1] 88 % of control | [2] 93 % of control | [3] 93 % of control

CC(=O)Nc1cccc2cc(O)ccc12
inactive: dose: 100.0 mg/kg/injection, schedule: Q04DX003 (ip), vehicle: gum acacia 98 % of control | dose: 200.0 mg/kg/injection, schedule: Q04DX003 (ip), vehicle: gum acacia 100 % of control | dose: 400.0 mg/kg/injection, schedule: Q04DX003 (ip), vehicle: gum acacia 88 % of control

CCCCS(=O)(=O)Cc1ccccc1
inactive: dose: 100.0 mg/kg/injection, schedule: Q01DX009 (ip), vehicle: Klucel (hydroxypropylcellulose) (HPC) 98 % of control | dose: 100.0 mg/kg/injection, schedule: Q04DX002 (ip), vehicle: Klucel (hydroxypropylcellulose) (HPC) 100 % of control | dose: 200.0 mg/kg/injection, schedule: Q01DX009 (ip), vehicle: Klucel (hydroxypropylcellulose) (HPC) 103 % of control | dose: 200.0 mg/kg/injection, schedule: Q04DX002 (ip), vehicle: Klucel (hydroxypropylcellulose) (HPC) 96 % of control | dose: 400.0 mg/kg/injection, schedule: Q01DX009 (ip), vehicle: Klucel (hydroxypropylcellulose) (HPC) 98 % of control | dose: 400.0 mg/kg/injection, schedule: Q04DX002 (ip), vehicle: Klucel (hydroxypropylcellulose) (HPC) 93 % of control

CCCCC(=O)c1ccc(C)cc1
inactive: [4] 102 % of control | [5] 98 % of control | [6] 96 % of control

COc1ccc(NCc2cnc3nc(N)nc(N)c3n2)cc1
inactive: dose: 20.0 mg/kg/injection, schedule: Q01DX009 (ip), vehicle: saline with Tween-80 110 % of control | dose: 40.0 mg/kg/injection, schedule: Q01DX009 (ip), vehicle: saline with Tween-80 108 % of control | dose: 80.0 mg/kg/injection, schedule: Q01DX009 (ip), vehicle: saline with Tween-80 106 % of control

CN(C)CCN(C)/N=N/c1nc[nH]c1C(N)=O
inactive: [7] 101 % of control | [8] 108 % of control | [1] 108 % of control | [9] 95 % of control | [10] 100 % of control | [2] 113 % of control | [11] 110 % of control | [12] 95 % of control | [3] 106 % of control

CC(=O)OC1CCC2(C)C(CCC3C2CCC2(C)C3CC3OC(CCC(C)(C)O)C(C)C32)C1 (stereo not given)
inactive: [7] 92 % of control | [9] 92 % of control | [11] 92 % of control

COC1(NC(=O)CCCC(N)C(=O)O)C(=O)N2C(C(=O)O)=C(COC(N)=O)CSC21 (stereo not given)
inactive: dose: 100.0 mg/kg/injection, schedule: Q04DX002 (ip), vehicle: saline 103 % of control | dose: 200.0 mg/kg/injection, schedule: Q04DX002 (ip), vehicle: saline 122 % of control | dose: 400.0 mg/kg/injection, schedule: Q04DX002 (ip), vehicle: saline 107 % of control

CCN1CC=CCC1
inactive: dose: 25.0 mg/kg/injection, schedule: Q04DX003 (ip), vehicle: saline 93 % of control | dose: 50.0 mg/kg/injection, schedule: Q01DX009 (ip), vehicle: saline 100 % of control | dose: 50.0 mg/kg/injection, schedule: Q04DX003 (ip), vehicle: saline 98 % of control | dose: 100.0 mg/kg/injection, schedule: Q01DX009 (ip), vehicle: saline 100 % of control | dose: 100.0 mg/kg/injection, schedule: Q04DX003 (ip), vehicle: saline 103 % of control and 91 % of control

Cc1ccc(NC(=O)NCCCl)c2c1CCC2
inactive: dose: 100.0 mg/kg/injection, schedule: Q01DX001 (ip), vehicle: Klucel (hydroxypropylcellulose) (HPC) 95 % of control | dose: 200.0 mg/kg/injection, schedule: Q01DX001 (ip), vehicle: Klucel (hydroxypropylcellulose) (HPC) 92 % of control | dose: 400.0 mg/kg/injection, schedule: Q01DX001 (ip), vehicle: Klucel (hydroxypropylcellulose) (HPC) 96 % of control

CC1=CCC=C(CNc2ncnc3nc[nH]c23)C1
inactive: dose: 25.0 mg/kg/injection, schedule: Q01DX009 (ip), vehicle: saline with Tween-80 95 % of control | dose: 25.0 mg/kg/injection, schedule: Q04DX003 (ip), vehicle: saline with Tween-80 94 % of control | dose: 50.0 mg/kg/injection, schedule: Q01DX009 (ip), vehicle: saline with Tween-80 93 % of control | dose: 50.0 mg/kg/injection, schedule: Q04DX003 (ip), vehicle: saline with Tween-80 97 % of control | [1] 101 % of control

COc1cc(C(=O)N2CCN(c3ccccc3)CC2)c2ccccc2n1
inactive: dose: 100.0 mg/kg/injection, schedule: Q01DX001 (ip), vehicle: other 98 % of control | dose: 200.0 mg/kg/injection, schedule: Q01DX001 (ip), vehicle: other 112 % of control | dose: 400.0 mg/kg/injection, schedule: Q01DX001 (ip), vehicle: other 101 % of control

CCCCCCCCCCCCCCCCC1CC2CCCCC2C1 (stereo not given)
inactive: [7] 100 % of control | [9] 93 % of control | [11] 94 % of control

Cc1ccc2nc3nc(-c4ccccc4)c(-c4ccccc4)nc3nc2c1
inactive: dose: 75.0 mg/kg/injection, schedule: Q01DX001 (ip), vehicle: other 93 % of control | dose: 150.0 mg/kg/injection, schedule: Q01DX001 (ip), vehicle: other 94 % of control | dose: 300.0 mg/kg/injection, schedule: Q01DX001 (ip), vehicle: other 89 % of control

O=C1OC(c2ccccc2)(c2ccccc2)c2ccc3ccccc3c21
inactive: [8] 98 % of control | [10] 103 % of control | [12] 98 % of control

Nc1ccc2oc3cccc(N)c3c(=O)c2c1
inactive: [4] 94 % of control | [5] 96 % of control | [6] 96 % of control

CCOC(=O)C1C(=O)CC(=O)C(C(=O)OCC)C1C1CC=CCC1 (stereo not given)
inactive: dose: 100.0 mg/kg/injection, schedule: Q04DX002 (ip), vehicle: saline with Tween-80 91 % of control | dose: 200.0 mg/kg/injection, schedule: Q04DX002 (ip), vehicle: saline with Tween-80 94 % of control | dose: 400.0 mg/kg/injection, schedule: Q04DX002 (ip), vehicle: saline with Tween-80 94 % of control

Cc1ccc(C)c(C(=O)CCCCl)c1
inactive: [1] 98 % of control

CN(C(=O)c1cc([N+](=O)[O-])ccc1O)c1ccc([N+](=O)[O-])cc1
inactive: [4] 97 % of control | [5] 95 % of control | [6] 97 % of control
